From patent US20180111913A1, “SUBSTITUTED BENZOFURAN DERIVATIVES AS NOVEL ANTIMYCOBACTERIAL AGENTS” (priority 2015, published 2018)
≈ marks a conversion by molar mass, not a printed value. Where two headings read alike, the source gives them in different places.

How the values were obtained:
[1] = biological target: Mtb Pks13-TE domain (wild-type) (Mycobacterium tuberculosis, UniProt I6X8D2); test: biochemical; format: biochemical
[2] = test system: human dermal fibroblast (HDF) cells; settings: for Survival vs. Control: HDF cell survival relative to DMSO-only control at the first (or only) Non-Toxic Concentration value; for Non-Toxic Concentration: human, 48 h
Mtb strain mc^27000 = test: microbe, parasite or virus in culture; format: cell-based, Mycobacterium tuberculosis
[3] = GKO mice, 300 mg/kg, 200 mg/kg from day 4; seizures
M tuberculosis = format: in vivo, Mycobacterium tuberculosis in GKO mice
Mtb (Erdman lux strain) = format: in vivo, Mycobacterium tuberculosis in female Balb/C mice
Mtb isolate H37Rv = settings: whole-cell screen; cited from earlier work
[4] = Pks13-TE, 20 μM 4-MUH, read-out: IC50
[5] = Pks13 enzyme inhibition, read-out: Pks13 IC50
[6] = Mycobacterium tuberculosis, read-out: Pks13 MIC
[7] = Mycobacterium tuberculosis, Mtb mc^27000, liquid medium, 96-well plates, read-out: MIC

Mtb Pks13-TE domain (wild-type), sequence (I6X8D2 1451-1733): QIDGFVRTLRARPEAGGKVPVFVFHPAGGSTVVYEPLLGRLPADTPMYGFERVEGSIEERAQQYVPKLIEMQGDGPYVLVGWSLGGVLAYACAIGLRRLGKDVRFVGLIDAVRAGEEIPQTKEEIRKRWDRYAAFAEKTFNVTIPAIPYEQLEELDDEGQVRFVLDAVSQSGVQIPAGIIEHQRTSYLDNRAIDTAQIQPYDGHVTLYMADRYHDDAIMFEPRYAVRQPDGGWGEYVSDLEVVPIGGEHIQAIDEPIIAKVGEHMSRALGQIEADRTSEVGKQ

With `CNC(=O)c1c(-c2ccccc2)oc2ccc(O)c(CN3CCCCC3)c12` [compound 17] as the compound, how does the IC50 ([1]; Mtb Pks13-TE domain, mean ± s.d. of triplicates, read-out: IC50) read?
Its IC50 is 0.29 ± 0.01 µM.

What about the IC50 [1, 4] of the same compound?
Its IC50 is 0.29 µM.

And the IC50 [1, 5]?
The IC50 was 0.29 µM.

And the “growth inhibition in HDF cells relative to DMSO only control” value [2]?
The value was “did not show any growth inhibition”.

And the “Survival vs. Control” value [2]?
Its value is 103%.

What about the “Non-Toxic Concentration” value [2] of the same compound?
The value was 50 µM.

And the MIC (Mtb strain mc^27000; Mtb mc^27000, liquid medium, 96-well plates, listed as compound L, read-out: MIC)?
Its MIC is 0.2 µM (≈ 0.0729 µg/mL).

What about the MIC (Mtb strain mc^27000; Mtb mc^27000, liquid medium, 96-well plates, read-out: MIC) of the same compound?
Its MIC is 2 µM (≈ 0.729 µg/mL).

And the MIC (Mtb strain mc^27000; Mycobacterium tuberculosis, […], mean ± s.d. of triplicates, NI: no inhibition, read-out: MIC)?
Its MIC is 0.2 µM (≈ 0.0729 µg/mL).

What about the MIC (Mtb strain mc^27000; [6]) of the same compound?
Its MIC is 0.2 µM (≈ 0.0729 µg/mL).

What about the “MIC lower than that of the test compound” value (Mtb strain mc^27000; relative to test compound) of the same compound?
The value was greater than 10 fold.

What about the “toxicity observed during dosing” value [3] of the same compound?
Its value is “apparent toxicity”.

What about the “log CFU reduction versus untreated control in the lungs” value (M tuberculosis; GKO mice, 300 mg/kg then 200 mg/kg from day 4, sacrificed day 8 of dosing, no drug clearance period, lungs) of the same compound?
Its value is 0.53 log CFU.

What about the “log CFU reduction versus untreated control in the spleen” value (M tuberculosis; GKO mice, 300 mg/kg then 200 mg/kg from day 4, sacrificed day 8 of dosing, no drug clearance period, spleen) of the same compound?
The value was 3.72 log CFU.

What about the “Lung CFU” value (M tuberculosis; mouse, in vivo) of the same compound?
Its value is 7.21.

And the “Lung RLU” value (M tuberculosis; mouse, in vivo)?
The value was 4.24.

What about the “Spleen CFU” value (M tuberculosis; mouse, in vivo) of the same compound?
Its value is 3.01.

What about the “Spleen RLU” value (M tuberculosis; mouse, in vivo) of the same compound?
Its value is 1.85.

Which IC50 [1, 4] does the source give for `CNC(=O)c1c(-c2ccc(OC)cc2)oc2ccc(O)c(CN3CCCCC3)c12` [compound 31] here?
Its IC50 is 0.26 µM.

What about the IC50 [1, 5] of the same compound?
The IC50 was 0.26 µM.

And the “Survival vs. Control” value [2]?
Its value is 111%.

What about the “Non-Toxic Concentration” value [2] of the same compound?
Its value is 50 µM.

And the MIC (Mtb strain mc^27000; [7])?
Its MIC is 1.1 µM (≈ 0.434 µg/mL).

What about the MIC (Mtb strain mc^27000; [6]) of the same compound?
Its MIC is 1.1 µM (≈ 0.434 µg/mL).

And the “log CFU reduction in the lungs vs. untreated controls” value (M tuberculosis; GKO mice, 100 mg/kg oral once daily, 9 days, lungs)?
The value was 0.84 log CFU.

And the “log CFU reduction in the spleen relative to untreated controls” value (M tuberculosis; GKO mice, 100 mg/kg oral once daily, 9 days, spleen)?
The value was 1.54 log CFU.

What about the “Diff of Means, Control vs. treatment, Lung” value (M tuberculosis; mouse, in vivo) of the same compound?
Its value is 0.834.

What about the “Diff of Means, Control vs. treatment, Spleen” value (M tuberculosis; mouse, in vivo) of the same compound?
The value was 2.623.

And the “Diff of Means, Inhibitor 31 vs. Inhibitor 32, Lung” value (M tuberculosis; mouse, in vivo)?
The value was 0.340.

What about the “Diff of Means, Inhibitor 31 vs. Inhibitor 32, Spleen” value (M tuberculosis; mouse, in vivo) of the same compound?
The value was 0.522.

And the “Diff of Means, Inhibitor 31 vs. Isoniazid, Lung” value (M tuberculosis; mouse, in vivo)?
Its value is 2.179.

And the “Diff of Means, Inhibitor 31 vs. Isoniazid, Spleen” value (M tuberculosis; mouse, in vivo)?
The value was 2.101.

And the “Lung CFU” value (M tuberculosis; mouse, in vivo)?
The value was 7.33.

What about the “Lung RLU” value (M tuberculosis; mouse, in vivo) of the same compound?
The value was 5.06.

And the “Spleen CFU” value (M tuberculosis; mouse, in vivo)?
The value was 5.11.

What about the “Spleen RLU” value (M tuberculosis; mouse, in vivo) of the same compound?
The value was 2.59.

With `CNC(=O)c1c(-c2ccc(O)cc2)oc2cc(O)cc(CN3CCCCC3)c12` [compound 47] as the compound, how does the IC50 [1, 4] read?
The IC50 was 0.57 µM.

And the “Survival vs. Control” value [2]?
The value was 98%.

What about the “Non-Toxic Concentration” value [2] of the same compound?
Its value is 50 µM.

And the MIC (Mtb strain mc^27000; [7])?
Its MIC is 1 µM (≈ 0.38 µg/mL).

What about the MIC (Mtb strain mc^27000; [6]) of the same compound?
The MIC was 1 µM (≈ 0.38 µg/mL).

What about the “activity in the lungs or the spleen, in words” value (M tuberculosis; GKO mice, 300 mg/kg dosing) of the same compound?
The value was “did not show any activity”.

And the “Lung CFU” value (M tuberculosis; mouse, in vivo)?
The value was 8.39.

What about the “Lung RLU” value (M tuberculosis; mouse, in vivo) of the same compound?
Its value is 6.09.

What about the “Spleen CFU” value (M tuberculosis; mouse, in vivo) of the same compound?
Its value is 6.84.

And the “Spleen RLU” value (M tuberculosis; mouse, in vivo)?
The value was 4.45.

For `CCOC(=O)c1c(-c2ccccc2)oc2cc(OC)cc(CNC(C)C)c12` [compound 72], which IC50 [1, 4] is on record?
Its IC50 is greater than 10 µM.

And the IC50 [1, 5]?
Its IC50 is greater than 10 µM.

And the “Survival vs. Control” value [2]?
The value was 91%.

And the “Non-Toxic Concentration” value [2]?
The value was 3.125 µM.

And the MIC (Mtb strain mc^27000; [7])?
Its MIC is 7.4 µM (≈ 2.72 µg/mL).

What about the MIC (Mtb strain mc^27000; [6]) of the same compound?
The MIC was 7.4 µM (≈ 2.72 µg/mL).

What does the source list for `CCOC(=O)c1c(-c2ccc(F)cc2)oc2cc(O)cc(CCNC(C)C)c12` [compound 73]?
IC50 [1, 4]: 2.1 µM; IC50 [1, 5]: 1.5 to 2.1 µM; Survival vs. Control [2]: 97%; Non-Toxic Concentration [2]: 12.5 µM; MIC (Mtb strain mc^27000; [7]): 2.5 µM (≈ 0.964 µg/mL); MIC (Mtb strain mc^27000; [6]): 2.5 µM (≈ 0.964 µg/mL)

What does the source list for `CNC(=O)c1c(-c2ccc(O)nc2)oc2cc(O)cc(CN3CCCCC3)c12` [compound 88]?
IC50 [1, 5]: 2.8 µM; Survival vs. Control [2]: 96%; Non-Toxic Concentration [2]: 50 µM; MIC (Mtb strain mc^27000; [7]): 2.8 µM (≈ 1.07 µg/mL)

With `CCOC(=O)c1c(-c2ccccc2)oc2ccc(O)c(CCN3CCCC3)c12` [compound 102] as the compound, how does the IC50 [1, 4] read?
Its IC50 is 2.5 µM.

And the IC50 [1, 5]?
The IC50 was 0.7 µM.

And the “Survival vs. Control” value [2]?
The value was 91%.

What about the “Non-Toxic Concentration” value [2] of the same compound?
Its value is 1.56 µM.

And the MIC (Mtb strain mc^27000; [7])?
The MIC was 0.7 µM (≈ 0.266 µg/mL).

Which results are given for `NNC(=O)c1ccncc1` [isoniazid, reference compound]?
log reduction (CFU) in the spleen (Mtb (Erdman lux strain); Balb/C mice, isoniazid control 25 mg/kg, 4 weeks, spleen): 2.52 log; Diff of Means, Control vs. treatment (Mtb (Erdman lux strain); […], organ not given, values match spleen reductions of b137): 2.523; Lung CFU (Mtb (Erdman lux strain); mouse, in vivo): 4.98; Lung RLU (Mtb (Erdman lux strain); mouse, in vivo): 2.37; Spleen CFU (Mtb (Erdman lux strain); mouse, in vivo): 2.35; Spleen RLU (Mtb (Erdman lux strain); mouse, in vivo): 1.59; log reduction (CFU) in the lungs (Mtb (Erdman lux strain); mouse, in vivo): 1.11 log; Diff of Means, Control vs. treatment, Lung (M tuberculosis; mouse, in vivo): 3.013; Diff of Means, Control vs. treatment, Spleen (M tuberculosis; mouse, in vivo): 3.644; Lung CFU (M tuberculosis; mouse, in vivo): 5.15; Lung RLU (M tuberculosis; mouse, in vivo): 3.51; Spleen CFU (M tuberculosis; mouse, in vivo): 2.49; Spleen RLU (M tuberculosis; mouse, in vivo): 1.77; log CFU reduction in the spleen (M tuberculosis; mouse, in vivo): 4.16 log CFU; log CFU reduction relative to untreated control in the lungs (M tuberculosis; mouse, in vivo): 3.02 log CFU; log reduction in RLU (luciferase assay) (M tuberculosis; mouse, in vivo, 25 mg/kg): 1.01 log

Which “MIC against Mtb isolate H37Rv” value (Mtb isolate H37Rv) does the source give for `CCOC(=O)c1c(-c2ccccc2)oc2ccc(O)c(CN3CCC(C)CC3)c12` [test compound] here?
Its value is 2.0 µM (≈ 0.787 µg/mL).
